# Laboratory results from patent US4092426A, “Novel aminobenzoic acid derivatives, process for preparing the same and pharmaceutical composition containing the same” (Chugai Seiyaku Kabushiki Kaisha, priority 1975, dated 1978).
# Counter-ions that a name gives are not always drawn.
# Key:
# [1] = test system: autoimmune glomerulonephritis; experiment: Activity for Treating a Model of Autoimmune Disease (glomerulonephritis); type: in vivo, New Zealand Black/White F1 female mice
# Experimental: Pharmacological activity of the test compound, disodium salt of N-2'-carboxyphenyl-4-chloroanthranilic acid, was studied by the use of glomerulonephritis of New Zealand Black/White F1 female mice as a model of autoimmune disease. The test animals were divided into groups of 8 members each and orally administered with the test compound in a dose of 5 mg/kg or 50 mg/kg once a day from 8 week old. Development of the disease was evaluated by measuring the level of protein in urine with Combistix test paper (Ames Co., Inc.). It was confirmed that the evaluation by the test paper closely corresponds to the results of a quantitative analysis by a sulfosalicyclic acid method. Changes in average level of protein in urine each of the groups during a period of from 20 weeks old to 35 weeks old of the mice are shown in FIG. 2. […] Further, 3 mice among 8 mice of the control group were died from glomerulonephritis during the period of from 35 to 40 weeks from their birth, while there was no death in the groups to which the test compound had been administered.
# Sarcoma-180 [2] = experiment: Antitumor Activity on Transplanted Tumor Cells (Sarcoma-180); type: in vivo, ddY strain male mice; details: 10 mg/kg oral once a day for 11 days; tumor weight 14 days after transplantation
# From the text: For test animals, ddY strain male mice weighing 20 - 25 g were used dividing into groups of 9 or 10 members each. Each of the mice was subjected to transplantation of 10^6 tumor cells (Sarcoma-180) at a portion of the root of a hind paw by subcutaneous injection to induce solid tumor. The test compound, disodium salt of N-2'-carboxyphenyl-4-chloroanthranilic acid, was orally administered once a day for 11 days from the day that transplantation was made. Fourteen days after the transplantation, the grown tumor tissue was taken out from each mouse and its wet weight was measured to evaluate antitumor activity of the test compound. […] For the reasons stated above, it is assumed that the activity of the test compound is based on host-mediated antitumor activity.
# Sarcoma-180 [3] = experiment: growth of Sarcoma-180 tumor cells in vitro; type: cell-based
# AH-13 = experiment: Antitumor Activity to Transplanted Cancer Cells (AH-13); type: in vivo, Donryu strain female rats; details: for Average Survival Terms: control 7.1
# From the text: As test animals, Donryu strain female rats (8 week old) which were divided into groups of 10 members each were used. Each rat was intraperitoneally administered with test compound, disodium salt of N-2'-carboxyphenyl-4-chloroanthranilic acid, once a day for 10 days from 16 days before the inoculation of the tumor cells disclosed hereinbelow. Sixteen days after the first administration of the test compound, each rat was intraperitoneally inoculated with 10^6 tumor cells identified as AH-13 to induce cancer of abdominal dropsy.
# neutrocyte = experiment: Activity for Improving Bacteriocidal Ability in Neutrocyte (NBT test); type: in vivo, JW/CSK strain white male rabbits; details: rabbit, oral 100 mg/kg
# Experimental: As test animals, JW/CSK strain white male rabbits weighing 3.0 - 3.9 kg were used, dividing them into groups of 5 members each. Each rabbit was orally administered with the test compound, disodium salt of N-2'-carboxyphenyl-4-chloroanthranilic acid in a dose of 100 mg/kg, and 24 hours after the administration, neutrocyte in the blood of the peripheral vessels were reacted with nitrobluetetrazorium (NBT) and then the proportion of cells positive to formazan was measured by a microscope. As the control, the value obtained from the same animal just 3 days before the administration of the test compound was referred to.
compound,measurement,setting,value
O=C(O)c1ccccc1Nc1cc(Cl)ccc1C(=O)O [disodium salt of N-2'-carboxyphenyl-4-chloroanthranilic acid],suppression of autoimmune glomerulonephritis,[1]; 5 or 50 mg/kg oral once a day,significantly shows pharmacological activities to suppress autoimmune glomerulonephritis
same,level of protein in urine,"[1]; 5 or 50 mg/kg oral once a day, 20 to 35 weeks old, control rose after around 27 weeks",maintained a relatively steady level
same,death from glomerulonephritis,"[1]; 5 or 50 mg/kg oral, 35 to 40 weeks from birth, control 3 among 8 died",no death
same,suppression of tumor growth (Sarcoma-180),Sarcoma-180 [2],significant activity for suppression of tumor growth
same,direct antitumor activity on Sarcoma-180 cells,Sarcoma-180 [3]; directly on the cells,no antitumor activity directly on the cells
same,growth of Sarcoma-180 cells in vitro,Sarcoma-180 [3]; in vitro,does not suppress the growth
same,T/C,AH-13; 50 mg/kg i.p.,163%
same,host-mediated antitumor activity (AH-13),AH-13; 50 mg/kg i.p.,exhibits host-mediated antitumor activity
same,Average Survival Terms,AH-13; 50 mg/kg i.p.,11.6 days
same,T/C,AH-13; 100 mg/kg i.p.,103%
same,Average Survival Terms,AH-13; 100 mg/kg i.p.,7.3 days
same,T/C,AH-13; 200 mg/kg i.p.,97%
same,Average Survival Terms,AH-13; 200 mg/kg i.p.,6.9 days
same,proportion of neutrocyte cells positive to formazan,neutrocyte,significantly increased
same,NBT Value,"neutrocyte; 24 h after, before treatment 11.4 ± 1.8, P<0.05, Average ± Standard Deviation",33.3 ± 7.8%
